Reference: patent publication US8444953B2, “Symmetric and asymmetric halogen-containing metallocarboranylporphyrins and uses thereof” (Brookhaven Science Associates, LLC, priority 2007, dated 2013)
Marks after values point to notes of the source that are not given here.

Experiments:
[1] = tested on: BALB/c mice bearing subcutaneously implanted EMT-6 mammary carcinomas; experiment: Biodistribution of porphyrin XV in mice bearing EMT-6 carcinomas (boron analyses of tissues); format: in vivo; details: 220 mg/kg (43 mg B/kg), 6 i.p. injections over 2 days, median (range), n = 5
Experimental: Porphyrin compound (XV) was emulsified in 9% Cremophor EL and 18% propylene glycol in saline.
To prepare a solution of ˜3.7 mg/mL porphyrin in 9% Cremophor EL (CRM) and 18% propylene glycol (PRG), the porphyrin was dissolved in tetrahydrofuran (THF) (1.5% of the total volume) and then heated to 40° C. for 15 min. CRM (9% of total volume) was then added and the mixture was heated to 60° C., for 2 hours, which removed most of the THF. After cooling to room temperature, PRG (18% of total volume) was added, followed by slow dropwise addition of saline (71.5% of total volume) with rapid stirring. The solution was degassed by stirring under vacuum (˜30 mm Hg) for 30-60 min and then filtered (Millipore, 8 μm).
BALB/c mice bearing subcutaneously implanted EMT-6 mammary carcinomas implanted on the dorsal thorax were given a total dose of 220 milligrams porphyrin compound XV per kilogram body weight (43 mg B/kg). At one and two days after the last injection, mice were euthanized, and tumor, blood, brain, and liver were removed for boron analyses. The blood was first analyzed for hematologic parameters that indicate toxicity before it was analyzed for boron.

[2] = Weight changes and hematologic parameters that indicate toxicity; format: in vivo, mice; details: for % Weight change / Granulocytes / Lymphocytes / Platelets: 220 mg/kg (43 mg B/kg), median (range)
[3] = mice, 1 day after last injection
[4] = mice, 2 days after last injection

Copper (II) 5,10,15-tris[3-o-carboranylmethoxyphenyl]-20-[2,6-difluorophenyl]porphyrin [Porphyrin XV]
Average boron concentration, Blood ([1]; 1 day after last injection): 47 (38-121) μg B/g | Average boron concentration, Brain ([1]; 1 day after last injection): 1.0 (0.6-1.7) μg B/g | Average boron concentration, EMT-6 Tumor ([1]; 1 day after last injection): 66 (24-153) μg B/g | Average boron concentration, Liver ([1]; 1 day after last injection): 300 (245-319) μg B/g | Average boron concentration, Skin (pinna) ([1]; 1 day after last injection): 5.9 (4.9-9.9) μg B/g | Average boron concentration, Blood ([1]; 2 days after last injection): 0.4 (0.3-4.5) μg B/g | Average boron concentration, Brain ([1]; 2 days after last injection): 0.1 (0-0.2) μg B/g | Average boron concentration, EMT-6 Tumor ([1]; 2 days after last injection): 88 (44-115) μg B/g | Average boron concentration, Liver ([1]; 2 days after last injection): 375 (364-419) μg B/g | Average boron concentration, Skin (pinna) ([1]; 2 days after last injection): 6.6 (3.6-8.1) μg B/g | median % weight loss (in words) ([2]; mice receiving porphyrin, 220 mg/kg): not significant | % Weight change [2, 3]: −0.6 (−3.4-3.3) % | Granulocytes [2, 3]: 52 (49.8-65.1) | Lymphocytes [2, 3]: 44.3 (31.8-46.5)^b | Platelets [2, 3]: 374 (158-879)^a | % Weight change [2, 4]: −0.2 (−3.3-3.8) % | Granulocytes [2, 4]: 54.0 (52.4-57.8) | Lymphocytes [2, 4]: 42.6 (38.4-44.1) | Platelets [2, 4]: 478 (91-661)^b | toxicity (in words) ([2]; mice, 220 mg/kg, weight and hematologic parameters): quite mild and transient
